For orientation: IC50 means the concentration that inhibits the measured activity by half.

The source of these data is patent EP4417607A1, “HETEROCYCLIC COMPOUND AS SOS1 INHIBITOR AND USES THEREOF” (Nanjing Zaiming Pharmaceutical Co., Ltd., priority 2021, dated 2023).

Experiment [1] relates to DLD-1 cell subcutaneous tumor model. The experiment is described as follows: Growth inhibition in DLD-1 cell subcutaneous tumor model. It counts as in vivo, NU/NU mice. The conditions noted are these: for TGI(%): 15 mg/kg, PO, BID, DLD-1 subcutaneous tumor, NU/NU mice. From the text:
• Human colorectal cancer DLD-1 cell: ATCC, CCL-221 • RPMI-1640 culture medium: Gibco, REF: 61870-036 • Fetal bovine serum: Gibco, REF: 10091-148 • 0.25% trypsin-EDTA: Gibco, REF: 25200-072 • D-PBS (phosphate-buffered saline without calcium and magnesium ions): Hyclone, Cat. No.: SH30256.01 • Matrigel: Corning, Cat. No.: 356237
• Animal information: NU/NU mice, female, aged 6-7 weeks, 24-30 g, purchased from Beijing Vital River Biotechnology Co., Ltd. • Cell culture: human colon cancer cell strain DLD-1 was cultured in vitro under the conditions of RPMI-1640 (cell culture medium) added with 10% fetal bovine serum and 1% Pen Strep (Gibco penicillin-streptomycin diabody), and an incubator at 37 °C with 5% CO2. The cells were digested with a 0.25% trypsin-EDTA digestive solution twice a week for passaging as per conventional practice. When cell confluence was 80%-90% and a required amount was achieved, the cells were collected and counted. Cell inoculation: 0.1 mL/(containing 5×10^6) DLD-1 cell suspension (RPMI-1640: Matrigel, volume ratio 1: 1) was inoculated subcutaneously into the right lumbar dorsal part of each mouse. On day 6 after inoculation of the cells, the mice were randomly grouped and administrated based on tumor volume. The day when random grouping was performed was day 0.
Tumor diameters were measured twice weekly using a vernier caliper. The tumor volume was calculated using the following formula: V = 0.5a × b^2, where a and b represent the long diameter and short diameter of the tumor, respectively. Mouse body weight was measured twice weekly.
The anti-tumor therapeutic effect of the compound was evaluated by tumor growth inhibition rate TGI (%). TGI (%) = [(1 - (average tumor volume at the end of administration in a treatment group - average tumor volume at the start of administration of the treatment group)) / (average tumor volume at the end of treatment of the solvent control group - average tumor volume at the start of treatment of the solvent control group)] × 100%.

Another experiment relates to H358 cells. The experiment is described as follows: H358 cell proliferation inhibition (CellTiter-Glo luminescent cell viability assay). The experiment is classed as cell-based. To be noted: Homo sapiens, NCI-H358, 168 h, 7 days. The procedure, abridged:
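H358 cells seeded at 3000 cells/well in RPMI1640/10% FBS, treated with compound for 7 days at 37 °C/5% CO2. Viability read by CellTiter-Glo 3D luminescence, normalised to cell-free (100%) and compound-free (0%) controls; IC50 fitted from 8 concentrations by four-parameter curve.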

As for `[2H][C@](C)(Nc1nc(C)nc2c(N3CCOCC3)c(=O)n(C3(CF)CC3)cc12)c1cccc(C(F)F)c1F` [Example 55, (R)-4-((1-(3-(difluoromethyl)-2-fluorophenyl)ethyl-1-d)amino)-6-(1-(fluoromethyl)cyclopropyl)-2-methyl-8-morpholinylpyrido[4,3-d]pyrimidine-7(6H)-one], the “TGI(%)” value in experiment [1] is recorded as 65.4%. Moreover, inhibition in the experiment with H358 cells was half-maximal at 24.3 nM (IC50).
Consider `Cc1nc(N[C@H](C)c2cccc(C(F)F)c2F)c2cn(C3(CF)CC3)c(=O)c(N3CCOC[C@@H]3C)c2n1` [Example 40, 4-(((R)-1-(3-(difluoromethyl)-2-fluorophenyl)ethyl)amino)-6-(1-(fluoromethyl)cyclopropyl)-2-methyl-8-((S)-3-methylmorpholine)pyrido[4,3-d]pyrimidine-7(6H)-one], for which, in experiment [1] (15 mg/kg orally twice a day, P < 0.0001), the “inhibitory effect on tumor growth” value was “significant inhibitory effect on tumor growth”. Further, in experiment [1], the “TGI(%)” value was 59.0%. In the experiment with H358 cells, this compound showed an IC50 of 14.2 nM.
With `[2H]C([2H])([2H])Oc1c(=O)n(C2(CF)CC2)cc2c(N[C@H](C)c3cccc(C(F)F)c3F)nc(C)nc12` [Example 23, (R)-4-((1-(3-(difluoromethyl)-2-fluorophenyl)ethyl)amino)-6-(1-(fluoromethyl)cyclopropyl)-8-(methoxy-d3)-2-methylpyrido[4,3-d]pyrimidine-7(6H)-one], the midpoint of inhibition in the experiment on H358 cells, the IC50, lay at 118 nM.
In the experiment with H358 cells, `Cc1nc(N[C@H](C)c2cccc(C(F)F)c2F)c2cn(C3(CF)CC3)c(=O)c(N3CCOCC3)c2n1` [Example 34, (R)-4-((1-(3-(difluoromethyl)-2-fluorophenyl)ethyl)amino)-6-(1-(fluoromethyl)cyclopropyl)-2-methyl-8-morpholinylpyrido[4,3-d]pyrimidine-7(6H)-one] showed an IC50 of 12.3 nM.
Same read-out and setting: to `COc1c(=O)n(N2CCOCC2)cc2c(N[C@H](C)c3cccc(C(F)F)c3F)nc(C)nc12` [Example 20, (R)-4-((1-(3-(difluoromethyl)-2-fluorophenyl)ethyl)amino)-8-methoxy-2-methyl-6-morpholinepyrido[4,3-d]pyrimidine-7(6H)-one] belongs 98.2 nM.
